Source: publication PMC8844075 (Nature Communications, 2022)
Like-named read-outs stand apart in the source and are kept apart here.

Assays:
[1] = system: Gi1 heterotrimer with NPY-bound Y1R; experiment: GTP turnover assay; type: biochemical, human
Protocol: GTP turnover assay was performed using GTPase-Glo assay kit (Promega)[22]. […] NPY-bound Y1R (4 μM) was mixed with 1 μM Gi1 heterotrimer (containing Gαi produced from E. coli or Sf9 cells) in an assay buffer consisting of 20 mM HEPES pH 8.0, 150 mM NaCl, 0.03% DDM, 0.003% CHS, 100 μM TCEP, 5 μM GDP, and 2.5 μM GTP. After incubation for 3 h, reconstituted GTPase-Glo reagent was added to the sample and incubated for 30 min at room temperature. Then, detection reagent was mixed and incubated for 10 min at room temperature. Luminescence was measured using a FlexStation 3 multi-mode microplate reader (Molecular Devices) and data were analyzed by GraphPad Prism 9.2.0.

Y1R = details: cited from earlier work
wild-type Y1R / Gi1 = experiment: BRET Gi1 recruitment assay, wild-type Y1R; type: cell-based, human; details: result in words
Protocol: Forty-eight hours of post-transfection, cells were detached with PBS supplemented with 20 mM EDTA and evenly spread into white 96-well microplates (SPL). […] All BRET data were collected using a Mithras LB940 instrument (Berthold), and graphs were plotted using GraphPad Prism 9.2.0.
each sample represent the mean and S.E.M. (standard error of mean) of n=six independent experiments, respectively. Each circle represents an individual data point from the experiment.

[2] = alanine mutants of NPY, ref [10],[26]

## Gi1 (Sf9): purified Gi1 heterotrimer containing Gαi1 produced from Sf9 insect cells
[1]; GTPase-Glo, 1 μM Gi1, 4 μM NPY-bound Y1R, 3 h, three independent experiments
  reduced luminescence signal (GTP hydrolytic activity): 95.1%

## Y36A: Y36A mutation of NPY
Y1R; [2]
  Y1R binding: loss of binding to Y1R

## NPY-COOH: carboxyl-NPY (NPY-COOH), non-amidated NPY
wild-type Y1R / Gi1
  Gi1 recruitment: does not induce recruitment of Gi1

## Gi (sf9)
[1]; 1st, Buffer 7216.3
  GTP turnover: 2592.3
[1]; 2nd, Buffer 7401.3
  GTP turnover: 2856.7
[1]; 3rd, Buffer 7365.4
  GTP turnover: 2743.4

## R33A: R33A mutation of NPY
Y1R; [2]
  Y1R binding: most severe defects in Y1R binding

## R35A: R35A mutation of NPY
Y1R; [2]
  Y1R binding: most severe defects in Y1R binding

## Y36F: Y36F mutation of NPY
Y1R; NPY mutant, ref [26]
  Y1R binding: relatively mild effect on Y1R binding

## Y1R
[1]; 1st, Buffer 7216.3
  GTP turnover: 7542.9
[1]; 2nd, Buffer 7401.3
  GTP turnover: 7352.2
[1]; 3rd, Buffer 7365.4
  GTP turnover: 7960.2
